Test results as given in paper PMC12305494, “Discovery of PXR Antagonist MI891 and PXR Degrader MI1013 and Their Roles in Hepatic Gene Regulation” (Journal of Medicinal Chemistry, 2025).
Numbering of substitutions follows the chain as printed.

Assays:
wild-type PXR LBD = biological target: T1, wild-type PXR LBD (Homo sapiens, UniProt O75469); test: Mammalian two-hybrid assay, wt-PXR LBD with SRC-1-VP16 in HepG2; assay type: cell-based; conditions: MI891 at 10 μM
T1 construct: HepG2 cells were cotransfected with a GAL4-hPXR LBD construct and pSCR1-VP16 construct; expressed in transfected cells; host or cells: HepG2
T1 sequence (O75469 146-433 limits assumed): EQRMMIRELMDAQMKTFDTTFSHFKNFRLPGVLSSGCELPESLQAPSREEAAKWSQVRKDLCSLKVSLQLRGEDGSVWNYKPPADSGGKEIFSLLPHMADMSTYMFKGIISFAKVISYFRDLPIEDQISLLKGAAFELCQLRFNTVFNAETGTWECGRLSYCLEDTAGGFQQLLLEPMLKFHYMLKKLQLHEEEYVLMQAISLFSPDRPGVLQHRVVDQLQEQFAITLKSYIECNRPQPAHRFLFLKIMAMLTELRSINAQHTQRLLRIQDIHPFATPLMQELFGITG
Description: (§1) Additionally, the GAL4-PXR-LBD triple mutants (S247W/C284W/S208W) construct and wild-type GAL4-wtPXR vector were used for PXR LBD mutant functional two-hybrid assay as we described before. In the mammalian two-hybrid assay, HepG2 cells were cotransfected with a GAL4-hPXR LBD construct and pSCR1-VP16 construct. Renilla luciferase vector was used for the normalization of firefly luciferase activity to Renilla luciferase activity.

HK-2 cells = test: CellTiter-Glo cytotoxicity assay, HK-2; assay type: cell-based, human; conditions: 24 h
Protocol: (§2) For the cytotoxicity assays involving HepG2, COS-1, and HK-2 cell lines, serial dilutions of MI891 or MI1013 were added to white 96-well tissue culture-treated plates containing these cell lines. After incubating the plates for 24 h at 37 °C, cytotoxicity was assessed using the CellTiter-Glo luminescent cell viability assay (Promega). The luminescence signal was measured with a Synergy2 plate reader (BioTek, Winooski, Vermont, USA) and presented as a relative change compared to the vehicle (DMSO, 0.1%) control, which was set at 100%.

[1] = biological target: T2, triple mutant (S208W/S247W/C284W) PXR LBD (Homo sapiens, UniProt O75469, C284W/S208W/S247W); test: Mammalian two-hybrid assay, obstructed triple mutant PXR LBD with SRC-1-VP16 in HepG2; assay type: cell-based
T2 construct: the GAL4-PXR-LBD triple mutants (S247W/C284W/S208W) construct; expressed in transfected cells; host or cells: HepG2
T2 sequence (O75469 146-433 S208W/S247W/C284W limits assumed): T1 sequence (O75469 146-433 limits assumed) with S63W, S102W, C139W
Description: as §1

HepG2 cells = test: CellTiter-Glo cytotoxicity assay, HepG2; assay type: cell-based, human; conditions: 24 h
Protocol: as §2

HepaRG cells = test: RT-qPCR gene expression in differentiated HepaRG cells; assay type: cell-based, human; conditions: 48 h
Protocol: HepaRG cells (Sigma-Aldrich/Merck) were cultivated and differentiated on 12-well plates. Seeded at 26,600 cells/cm^2, they were maintained in William’s medium with supplements. After 14 days, differentiation into hepatocyte-like cells was induced using 1.5% DMSO for another 14 days.
RT-qPCR was utilized to investigate gene expression in HepaRG and PHH. Total RNA was extracted from these cells using the phenol–chloroform method. The concentration of the isolated RNA was then measured using a Nanodrop 1000 spectro-photometer (Thermo Fisher Scientific).
Following RNA isolation, reverse transcription was performed to convert RNA into complementary DNA (cDNA). This step was carried out using the High-capacity cDNA reverse transcription kit (Cat. No. 4374966, ThermoFisher Scientific). The resulting cDNA served as the template for subsequent qPCR reactions.
The qPCR reactions were conducted on the QuantStudio 6 Flex Real-Time PCR System (ThermoFisher Scientific, Waltham, Mas-sachusetts). For these reactions, TaqMan Universal master mix II (Cat. No. 4440047, ThermoFisher Scientific) and TaqMan assays (FAM) utilized in this study are detailed in the Supporting Information. To quantify gene expression, the cycle threshold (Ct) values of the target genes were normalized to the Ct values of reference genes HPRT1 or GAPDH (HepaRG) or TBP (PHH). The normalized values were then expressed as fold changes (2−ΔΔCt) relative to the DMSO control at the specified time points, with the control set as 1.

COS-1 cells = test: CellTiter-Glo cytotoxicity assay, COS-1; assay type: cell-based, monkey; conditions: 24 h
Protocol: as §2

[2] = Microsomal stability, human microsomes; assay type: in vitro ADME; conditions: liver microsomes; 0.5 mg/mL human microsomes, 5 μM, up to 45 min; read-out: Microsomal stability, t1/2 (min), human
Protocol: The protocols and reagents for the plasma protein binding assay and metabolic stability testing in human and mouse liver microsomes are detailed in our previous report. […] The stability of compounds was tested in human and mouse microsomes (ThermoFisher Scientific). Compounds were tested in triplicate with or without NADPH wells as a negative control for cytochrome P450 metabolism. […] Each assay included a substrate with known activity as a positive control. Time points were analyzed by LC/MS/MS. The peak area for the parent compound is compared to the time zero sample in order to assess the amount of remaining compound.

SULT1E1, SULT1B1, CYP7B1 and NR0B2 (SHP) gene expression (HepaRG cells; MI891 5 μM, MI1013 2 μM) | CYP3A4 gene expression (HepaRG cells; MI891 5 μM, SPA70 5 μM, MI1013 2 μM) | half-life at 5 μM [2] [min] | CYP2B6 mRNA expression (HepaRG cells; at 1 μM, no significant activation at higher concentrations) | Compound | effect on wt-PXR-LBD/SRC1-VP16 two-hybrid (wild-type PXR LBD) | cytotoxicity/viability (HK-2 cells; HK-2, up to a concentration of 100 μM) | activation of obstructed mutated PXR LBD two-hybrid [1] | cytotoxicity/viability (HepG2 cells; HepG2, up to a concentration of 100 μM) | cytotoxicity/viability (COS-1 cells; COS-1, up to a concentration of 100 μM) | effect on viability (HK-2 cells; HK-2, up to 30 μM) | effect on viability (HepG2 cells; HepG2, up to 30 μM) | CYP3A4 mRNA expression (HepaRG cells; alone or with rifampicin (5 μM), concentration-dependent) | effect on viability (COS-1 cells; COS-1, up to 30 μM)
significantly downregulated | downregulated |  |  | N-(4-((1-(2,5-dimethoxyphenyl)-5-methyl-1H-1,2,3-triazol-4-yl)sulfonyl)phenyl)-3-(2-(2-(2-(4-(((2-(2,6-dioxopiperidin-3-yl)-1,3-dioxoisoindolin-4-yl)amino)methyl)-1H-1,2,3-triazol-1-yl)ethoxy)ethoxy)ethoxy)propenamide [Compound 36] | does not activate | nontoxic | does not activate | nontoxic | nontoxic |  |  |  | 
significantly downregulated |  | > 45 | slightly induced | NC(=O)c1cc(Cn2cc(-c3c(-c4ccc(Cl)cc4)nc4c(F)cc(F)cn34)nn2)ccc1Cl [Compound 11, 2-Chloro-5-((4-(2-(4-chlorophenyl)-6,8-difluoroimidazo[1,2-a]pyridin-3-yl)-1H-1,2,3-triazol-1-yl)methyl)-benzamide] | disrupted the wt-PXR-LBD/SRC1-VP16 interaction |  | Neither MI891 nor SPA70 activated the obstructed mutated PXR LBD |  |  | no effects on viability | no effects on viability | suppressed both rifampicin-induced and basal (constitutive) CYP3A4 mRNA expression | no effects on viability
